Measurements published in article PMC9699427 (Viruses, 2022).

Columns and labels:
[1] = tested on: C8166 cells infected with HIV-1IIIB or TZM-bl cells infected with HIV-1YU-2; assay: Combination antiviral activity assay (CompuSyn CI and DRI); assay type: cell-based
CYP2C19 = CYP2C19 (Homo sapiens, UniProt P33261); assay: Cytochrome P450 inhibition, human liver microsomes, S-mephenytoin
HIV-1IIIB = assay: Anti-HIV-1 activity in the presence of human serum, p24 in C8166; details: Human immunodeficiency virus 1, C8166, HIV-1IIIB
[2] = single drug in combination K-5a2+3TC
[3] = single drug in combination K-5a2+AZT
[4] = single drug in combination K-5a2+DC521022
[5] = single drug in combination K-5a2+DRV
[6] = single drug in combination K-5a2+DTG
[7] = single drug in combination K-5a2+ETR
[8] = single drug in combination K-5a2+FTC
[9] = single drug in combination K-5a2+MVC
[10] = single drug in combination K-5a2+RAL
[11] = single drug in combination K-5a2+T-20
[12] = single drug in combination K-5a2+TDF

CYP2C19, sequence (P33261 whole entry): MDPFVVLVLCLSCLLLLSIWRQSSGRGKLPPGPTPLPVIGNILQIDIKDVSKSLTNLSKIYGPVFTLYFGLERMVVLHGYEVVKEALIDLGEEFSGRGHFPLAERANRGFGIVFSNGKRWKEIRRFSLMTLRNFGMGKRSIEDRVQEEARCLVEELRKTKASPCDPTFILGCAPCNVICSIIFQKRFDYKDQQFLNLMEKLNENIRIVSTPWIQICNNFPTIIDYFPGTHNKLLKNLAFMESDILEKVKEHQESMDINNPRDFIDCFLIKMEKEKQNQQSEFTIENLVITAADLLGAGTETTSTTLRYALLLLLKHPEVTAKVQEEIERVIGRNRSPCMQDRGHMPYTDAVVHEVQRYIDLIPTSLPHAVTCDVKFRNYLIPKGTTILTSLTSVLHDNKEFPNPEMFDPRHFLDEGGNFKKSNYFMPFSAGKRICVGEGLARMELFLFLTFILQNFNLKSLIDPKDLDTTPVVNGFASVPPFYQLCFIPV

SMILES: Cc1cc(C#N)cc(C)c1Oc1nc(NC2CCN(Cc3ccc(S(N)(=O)=O)cc3)CC2)nc2ccsc12 [K-5a2]
- DRI Value ED75 [1, 2]: 2.79 ± 0.14
- DRI Value ED90 [1, 2]: 2.81 ± 0.58
- DRI Value ED95 [1, 2]: 2.85 ± 0.93
- DRI Value ED75 [1, 3]: 13.26 ± 9.86
- DRI Value ED90 [1, 3]: 7.60 ± 3.58
- DRI Value ED95 [1, 3]: 5.48 ± 2.08
- DRI Value ED75 [1, 4]: 1.61 ± 0.50
- DRI Value ED90 [1, 4]: 1.71 ± 0.48
- DRI Value ED95 [1, 4]: 1.78 ± 0.47
- DRI Value ED75 [1, 5]: 2.26 ± 0.28
- DRI Value ED90 [1, 5]: 2.57 ± 0.19
- DRI Value ED95 [1, 5]: 2.85 ± 0.57
- DRI Value ED75 [1, 6]: 1.69 ± 0.37
- DRI Value ED90 [1, 6]: 1.94 ± 0.10
- DRI Value ED95 [1, 6]: 2.19 ± 0.50
- DRI Value ED75 [1, 7]: 1.47 ± 0.24
- DRI Value ED90 [1, 7]: 1.40 ± 0.12
- DRI Value ED95 [1, 7]: 1.35 ± 0.07
- DRI Value ED75 [1, 8]: 5.00 ± 0.71
- DRI Value ED90 [1, 8]: 3.58 ± 0.51
- DRI Value ED95 [1, 8]: 2.85 ± 0.41
- DRI Value ED75 [1, 9]: 1.30 ± 0.17
- DRI Value ED90 [1, 9]: 1.28 ± 0.15
- DRI Value ED95 [1, 9]: 1.27 ± 0.15
- DRI Value ED75 [1, 10]: 2.45 ± 0.95
- DRI Value ED90 [1, 10]: 2.47 ± 0.85
- DRI Value ED95 [1, 10]: 2.49 ± 0.79
- DRI Value ED75 [1, 11]: 5.13 ± 0.38
- DRI Value ED90 [1, 11]: 4.68 ± 0.43
- DRI Value ED95 [1, 11]: 4.43 ± 0.75
- DRI Value ED75 [1, 12]: 2.30 ± 0.73
- DRI Value ED90 [1, 12]: 2.15 ± 0.47
- DRI Value ED95 [1, 12]: 2.06 ± 0.33
- IC50 (CYP2C19): > 50 µM
- EC50 (HIV-1IIIB; C8166, p24, 20% human serum): 7.83 ± 1.73 nM
- EC50 (HIV-1IIIB; C8166, p24, 40% human serum): 7.87 ± 6.01 nM
